# In US6861430B2, “β-carboline derivatives and its pharmaceutical use against depression and anxiety” (Novartis AG, priority 2001, dated 2005):
# Experiments:
# rats = experiment: social exploration test / social contact assay; format: in vivo; settings: rat
# Description: In the social exploration test at doses of about 0.01 to 10 mg/kg p.o., the agents of the invention increase social contact time of rats similarly to classical anxiolytics such as benzodiazepines e.g. chlordiazepoxide or NK1 antagonists (Vassout A, Veenstra S, Hauser K, Ofner S, Brugger F, Schilling W, Gentsch C, Regulatory Peptides. 2000; 96, 7-16).
# (§1) The preferred agent of the invention for the above-mentioned indications is the (R)-1,1-bis-ethoxymethyl-3-(4-phenyl-1H-imidazol-2-yl)-2,3,4,9-tetrahydro-1H-β-carboline, in free base or acid addition salt form. […] In the forced swim test (Porsolt), the immobility time is shortened by 30-45% on subchronic administration of 12.5-25 mg/kg p.o.
# mice = experiment: social recognition test; format: in vivo; settings: doses between 0.03 and 3 mg/kg p.o.
# Description: The agents of the invention at 0.03-3 mg/kg p.o. enhance leaming/mlmory in mice as measured in the social recognition test similar to oxiracetam or GABAB blockers (Thor D. H. and Holloway W. R. J. Comp. Physiol. Psychol. 1982; 96: 1000-1006. Mondadori C. et al., Behavioural Brain Research 1996, 77: 227-229).
# as §1
# rat = experiment: forced swim test (Porsolt), rat; format: in vivo; settings: subchronic administration of 12.5-25 mg/kg p.o.
# Description: The agents of the invention show antidepressant-like effects in the rat, similar to desipramine or fluoxetine when given subchronically (10-30 mg/kg, p.o.) in the forced swim test. (Porsolt, R. D. et al. Nature. 1977: 266, 730-732) and also produce antidepressant-like effects in the mouse, similar to fluoxetine (Porsolt, R. D. et al. Nature 1977: 266, 730-732). Finally, these agents, when given once per day for 14 days, (0.3-30 mg/kg p.o.), reverse both the characteristic hyper-reactivity of bulbectomised rats when first placed in a novel and stressful environment and the total activity, similar to imipramine and desipramine. (Song C and Leonard BE. Hum. Psychopharmacol 1994; 9: 135-146).
# as §1
# mouse sst3 receptor = mouse sst3 receptor (Mus musculus, UniProt P30935); experiment: radioligand binding, mouse sst3 receptor; settings: read-out: pKd, mouse receptor (converted)
# Source text: (§2) In particular the agents of the invention show high affinity to somatostatin receptors. More particularly they are selective antagonists at somatostatin sst3 receptors, previously called SSTR-3 receptors (see Hoyer et al., TiPS, 1995, 16; 86-88), as determined in radioligand binding and second messenger studies [see for example K. Kaupmann et al., FEBS Letts. 1993, 331:53-59.
# as §1
# passive avoidance test = format: in vivo; settings: 0.1, 1 or 10 mg/kg p.o.
# [1] = target: somatostatin sst3 receptors (Homo sapiens, UniProt P32745); experiment: radioligand binding, somatostatin receptor expressing cell cultures; settings: sst3 versus other somatostatin receptors
# Source text: as §2
# human sst3 receptor = human sst3 receptor (Homo sapiens, UniProt P32745); experiment: radioligand binding, human sst3 receptor; settings: read-out: pKd, human receptor (converted)
# Source text: as §2, §1
# Chain of mouse sst3 receptor (P30935 whole entry): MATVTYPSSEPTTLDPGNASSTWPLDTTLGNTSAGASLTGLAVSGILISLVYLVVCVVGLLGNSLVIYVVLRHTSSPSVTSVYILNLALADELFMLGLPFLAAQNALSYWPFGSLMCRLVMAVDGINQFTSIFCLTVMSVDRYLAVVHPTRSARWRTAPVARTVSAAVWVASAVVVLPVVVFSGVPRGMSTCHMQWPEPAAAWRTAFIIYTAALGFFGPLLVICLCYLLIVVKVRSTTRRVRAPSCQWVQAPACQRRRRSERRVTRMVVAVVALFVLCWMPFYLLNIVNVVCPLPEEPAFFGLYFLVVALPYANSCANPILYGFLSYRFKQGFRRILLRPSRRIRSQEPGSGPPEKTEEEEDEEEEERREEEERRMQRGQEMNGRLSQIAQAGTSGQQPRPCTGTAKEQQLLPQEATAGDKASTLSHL
# Chain of human sst3 receptor (P32745 whole entry): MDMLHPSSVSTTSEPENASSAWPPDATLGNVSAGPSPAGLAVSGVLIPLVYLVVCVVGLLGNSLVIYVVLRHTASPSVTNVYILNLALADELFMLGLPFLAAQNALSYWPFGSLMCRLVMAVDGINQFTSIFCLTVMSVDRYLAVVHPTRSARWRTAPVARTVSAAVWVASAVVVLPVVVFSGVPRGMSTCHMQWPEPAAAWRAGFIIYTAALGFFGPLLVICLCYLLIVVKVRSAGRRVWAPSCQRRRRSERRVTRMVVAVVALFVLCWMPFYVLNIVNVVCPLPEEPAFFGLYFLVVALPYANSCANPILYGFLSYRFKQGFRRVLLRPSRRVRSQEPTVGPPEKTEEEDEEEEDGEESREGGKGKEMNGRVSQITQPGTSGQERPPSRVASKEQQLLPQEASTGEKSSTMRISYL
# Chain of somatostatin sst3 receptors (P32745 whole entry): as above
melting point,Kd (mouse sst3 receptor),impairment of memory formation in passive avoidance test (passive avoidance test),selectivity over other somatostatin receptors [1],Kd (human sst3 receptor),SMILES,"dose of maximal amplitude, social contact assay (rats)",duration of social contacts of the intruder towards the resident (rats; 0.01-10 mg/kg p.o.),social recognition of a familiar partner (mice),shortening of immobility time (rat)
200 to 205 °C,–,–,–,–,"CCCCC1(CCCC)N[C@@H](c2nc(-c3ccncc3)c[nH]2)Cc2c1[nH]c1ccccc21 [Example 1, (R)-1,1-Dibutyl-3-(4-pyridin-4-yl-1H-imidazol-2-yl)-2,3,4,9-tetrahydro-1H-β-carboline]",–,–,–,–
–,5.01 nM,no impairment of memory formation,more than 400 fold,2.04 nM,"CCOCC1(COCC)N[C@@H](c2nc(-c3ccccc3)c[nH]2)Cc2c1[nH]c1ccccc21 [Example 10, (R)-1,1-bis-ethoxymethyl-3-(4-phenyl-1H-imidazol-2-yl)-2,3,4,9-tetrahydro-1H-β-carboline]",0.3-3 mg/kg p.o.,increases dose dependently the duration of social contacts,significant increase of social recognition,30-45%
